Laboratory results as given in US20220257503A1, “Surface Modified Gas Vesicles, Preparation and Applications thereof” (THE HONG KONG POLYTECHNIC UNIVERSITY, priority 2019, published 2022).

Experiments:
MCF-7 cells [1] = test: PDT cytotoxicity by CCK-8 assay; assay type: cell-based, Human
Description: (§1) Photodynamic therapy setup: Cells were exposed to laser with the power of 100 mW/cm^2 for 5 min. The light source with a wavelength of 396 nm that was generated by an optical fiber was collimated to an aperture and irradiated to the 35 mm cell culture dish. The position of the cell culture plate was manually controlled by a dual-axis electric linear platform. After the treatment, cells were cultured in fresh medium for 4 h and then prepared for different analyses.
Cell culture: Human breast cancer cell line (MCF-7) was obtained from the Shanghai Cell Bank. […]
Cell viability test: In the pilot study, MCF-7 cells were divided randomly into eight groups: (1) control, (2) laser alone, (3) PpIX alone, (4) PpIX plus laser (PDT), (5) PpIX+GVs+laser (PDT+GVs), (6) PpIX+oxyGVs+laser (PDT+oxy-GVs), (7) GVs+laser, and (8) oxyGVs+laser. […] Cell viability at the different time points following PDT was determined using a Cell Counting Kit-8 (Sigma-Aldrich) according to the manufacturer's instructions. […] Cytotoxicity was determined by adding 10 μl CCK-8 reagent per well for 1 h at 37° C. in 5% CO2. The absorbance of the treated samples against a blank control was measured at 450 nm as the detection wavelength. The viability of treated cells was determined by comparing to the untreated ones in the control group.

MCF-7 cells [2] = test: Cell apoptosis after PDT by Annexin V/PI flow cytometry; assay type: cell-based, Human; details: PDT (PpIX plus laser)
Description: as §1
Cell apoptosis test: Cells were seeded at a density of 5×10^5 cells in 6-cm dishes and incubated for 24 h. Alexa Fluor 488 Annexin V/Dead Cell Apoptosis Kit (Thermo Fisher Scientific) was used to measure cell apoptosis according to the manufacturer's instructions. Cells were collected and incubated with 5 μL of the annexin V conjugate and 1 μL of the PI working solution at room temperature for 15 min. The cells were analyzed by FACS Calibur flow cytometer and BD Accuri C6 Software (Becton-Dickinson, USA).

[3] = Singlet oxygen generation in cell free system under ultrasound (SOSG); details: alone; PpIX 10 μM, GVs 2 nM
Description: SDT setup: 1 MHz planar ultrasound transducer with diameter of 5 cm (Olympus, Tokyo, Japan) was used for sonification in this study. Function generator (AFG 3251, Tektronix Company, Oregon, USA) and power amplifier (Model 500 A250 CAR; Souderton, Pa., USA) were used to generate ultrasonic pulses. Cells were exposed to ultrasound 10 cm away from transducer coupled by degassed deionized water at 25° C. Acoustic intensity and field were characterized by hydrophone (HGL-200; Onda, Sunnyvale, Calif., USA). The spatial peak temporal average intensity was measured to be 8 W/cm^2; the duty cycle was 20% with fixed pulse repetition frequency (PRF) of 1000 Hz. The overall sonification duration was 5 min. The temperature increase in cell-culture experiment solution was controlled within 2.5° C. After the ultrasound treatment, cells were cultured in fresh medium for 4 h and then prepared for different analyses.
Generation of singlet oxygen: SOSG (10 μM) was used to detect singlet oxygen generation. The solution was exposed to ultrasound and protected from light during the exposure time. The fluorescence intensity of SOSG was measured by microplate reader at an excitation wavelength of 488 nm and an emission wavelength of 530 nm.

[4] = system: SCC7 tumor-bearing nude mice; test: Biodistribution by NIR fluorescence imaging in tumor-bearing mice; assay type: in vivo
Description: Animal experiments were conducted under protocols approved by Animal Care and Use Committee (CC/ACUCC) of Hong Kong Polytechnic University. Suspension of 4×10^6 SCC7 cells in PBS (80 μL) was injected to subcutaneous sites in athymic nude mice (seven weeks old, female, 20-24 g). When the tumor size (in the right leg region) reached average size of 120 mm^3, mice were randomly allocated into three groups, (a) injecting free ICG solution into the tail veins of mice; (b) injecting ICG labelled GVs solution into the tail veins of mice; and (c) injecting ICG labelled PH-GVs solution into the tail veins of mice. Fluorescent imagines were acquired at 0, 0.5, 1, 2, 4, 8, 12, 24 and 48 h after injection using IVIS Lumina II (Caliper Life Sciences, USA; Excitation Filter: 780 nm, Emission Filter: 800 nm).
At the time of highest accumulation after one-dose injection, SCC7 tumors and normal organs (hearts, livers, spleens, kidneys, lungs and muscles) were collected for acquisition of Fluorescent signal intensity.

| SMILES | effects on cell viability (MCF-7 cells [1]; PpIX alone, no laser) | cell viability (MCF-7 cells [1]; PpIX+laser (ALA-PDT), 4 h following PDT) | viable cells (MCF-7 cells [2]) | SOSG fluorescence intensity before and after ultrasound treatment [3] | fluorescence at tumor sites (in vivo imaging) ([4]; after intravenous injection, PH-GVs at 8 h) | fluorescence signals in the normal organs (in vivo imaging) ([4]; early time points (0.5-2 h) for ICG/GVs, up to 8 h for PH-GVs) |
| --- | --- | --- | --- | --- | --- | --- |
| C=CC1=C(C)c2cc3[nH]c(cc4[nH]c(cc5nc(cc1n2)C(C)=C5C=C)c(C)c4CCC(=O)O)c(CCC(=O)O)c3C [PpIX] | no effects | 75% | 74.7% | increased significantly |  |  |
| CC1(C)C(/C=C/C=C/C=C/C=C2\N(CCCCS(=O)(=O)[O-])c3ccc4ccccc4c3C2(C)C)=[N+](CCCCS(=O)(=O)[O-])c2ccc3ccccc3c21.[Na+] [ICG] |  |  |  |  | no strong fluorescence signal | considerable fluorescence signals |
